# Structures can show the parent of a compound that is named as a salt. Active and inactive are the calls of the source.
# Experiments:
# [1] = molecular target: 72 kDa type IV collagenase (Homo sapiens, UniProt P08253); test: Dose Response validation of uHTS RPN11 inhibitor hits using a MMP-2 Fluorescence assay.; type: functional
# [2] = molecular target: 26S proteasome non-ATPase regulatory subunit 14 (Homo sapiens, UniProt O00487); test: inhibition of proteasome subunit RPN11 – biochemical, fluorescence polarization, uHTS hits, confirmation (AID 602368); type: functional
# Prothrombin = Prothrombin (Bos taurus, UniProt P00735); test: thrombin protease inhibitors – biochemical, fluorescence polarization, uHTS hits, dose response (AID 602369); type: functional
# [3] = Trypanosoma cruzi growth suppression in host cells – NIH3T3 host cells, beta-gal luminescence, confirmation (AID 2044); type: functional, cell-based;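 further: intracellular parasites grown in NIH/3T3 mouse fibroblasts as host cells; luminescent beta-galactosidase reporter signal from transgenic T. cruzi replicating inside host cells; inhibitors lower the luminescence signal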
# [4] = NIH3T3 cell viability loss – ATP luminescence, mouse fibroblasts, counter-screen, dose response (AID 2010); type: functional, cell-based;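 further: cells exposed to compound for about 90 hours before reading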
# Coagulation factor XII = molecular target: T1, Coagulation factor XII (Homo sapiens, UniProt P00748); test: Factor XIIa Dose Response Confirmation from Single Well HTS. [Related pubchem assays (depositor defined):AID701]; type: functional
# T1 sequence (P00748 whole entry): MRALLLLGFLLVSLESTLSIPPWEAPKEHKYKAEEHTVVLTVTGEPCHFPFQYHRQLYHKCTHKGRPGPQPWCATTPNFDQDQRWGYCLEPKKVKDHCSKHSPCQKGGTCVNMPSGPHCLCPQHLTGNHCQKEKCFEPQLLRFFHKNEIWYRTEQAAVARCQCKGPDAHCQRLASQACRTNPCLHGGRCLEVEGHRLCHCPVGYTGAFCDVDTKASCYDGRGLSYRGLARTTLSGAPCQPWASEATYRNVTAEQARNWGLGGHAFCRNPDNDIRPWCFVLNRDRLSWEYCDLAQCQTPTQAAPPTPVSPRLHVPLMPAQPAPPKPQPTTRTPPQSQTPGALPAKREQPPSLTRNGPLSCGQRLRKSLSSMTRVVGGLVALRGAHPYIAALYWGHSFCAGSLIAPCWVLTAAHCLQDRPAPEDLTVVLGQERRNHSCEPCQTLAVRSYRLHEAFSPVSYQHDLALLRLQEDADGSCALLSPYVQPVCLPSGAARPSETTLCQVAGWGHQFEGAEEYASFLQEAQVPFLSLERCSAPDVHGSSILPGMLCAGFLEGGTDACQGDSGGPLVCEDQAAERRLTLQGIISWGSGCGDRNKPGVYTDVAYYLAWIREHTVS
# [5] = viability of uninfected HEp-2 cells – cell-based, HTS, cytotoxicity control for RSV inhibitor project, dose response (AID 2410); type: functional; settings: human respiratory syncytial virus
# [6] = Vero E6 cell cytotoxicity, dose response, cytotoxicity control for non-replicating M. tuberculosis project, secondary assay (AID 492998); type: functional, VeroE6; settings: Vero C1008
# [7] = HepG2 cell cytotoxicity, dose response, cytotoxicity control for non-replicating M. tuberculosis project (AID 489018); type: functional; settings: Mycobacterium tuberculosis
# Melanocortin receptor 4 = Melanocortin receptor 4 (Homo sapiens, UniProt P32245); type: functional, cell-based;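 further: Cell-based assay with luminescence read-out, confirmatory dose-response testing for agonist activity of biased ligands at MC4R; human U2OS cells with tagged receptor and beta-arrestin; potency of agonists that increase receptor coupling to beta-arrestin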
# [8] = reduction of Shn3 3'UTR-driven luciferase in osteoblasts – cell-based, Clone20 osteoblasts, firefly luciferase, cherry-picked, dose response (AID 624132); type: functional;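 further: firefly luciferase luminescence from reporter carrying the Shn3 3'UTR in osteoblasts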
# cells = type: functional
# Nonstructural protein 1 = Nonstructural protein 1 (Influenza A virus, UniProt Q194T2); type: functional, Influenza A virus (A/California/07/2009(H1N1))
# [9] = THP-1 cell cytotoxicity, dose response, cytotoxicity control for non-replicating M. tuberculosis project (AID 489025); type: functional
# [10] = loss of viability in HepG2 cells – cell-based, CellTiter-Glo, cherry-picked, cytotoxicity control for Shn3 inhibitor project, dose response (AID 624134); type: functional
# [11] = molecular target: T2, Ubiquitin-conjugating enzyme E2 N (Homo sapiens, UniProt P61088); type: functional;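 further: Dose-response confirmation in a TR-FRET assay detecting UBC13-driven polyubiquitin chain formation, inhibition measured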
# T2 sequence (P61088 whole entry): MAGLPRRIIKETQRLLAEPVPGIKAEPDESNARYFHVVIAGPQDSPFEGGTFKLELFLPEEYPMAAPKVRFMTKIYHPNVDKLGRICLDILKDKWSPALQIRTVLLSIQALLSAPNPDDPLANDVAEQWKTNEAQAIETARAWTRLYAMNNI
# [12] = molecular target: G-protein coupled receptor 55 (Homo sapiens, UniProt Q9Y2T6); test: inhibition of LPI-stimulated GPR55 beta-arrestin translocation – imaging, U2OS, beta-arrestin-GFP, LPI agonist, primary screen (AID 2013); type: functional;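 further: antagonist potency measured as reduced agonist-driven arrestin aggregation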
# HEK293 = test: EBV LMP1 TES2 canonical NF-kB signalling blockers – cell-based, HEK293, luciferase, cherry-pick, dose response (AID 588343); type: functional; settings: Homo sapiens
# Estrogen receptor beta [13] = molecular target: T3, Estrogen receptor beta (Homo sapiens, UniProt Q92731);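 further: recombinant ER-beta bound to coactivator SRC1 peptide in presence of estradiol agonist; inhibitors block coactivator peptide binding and lower the FRET signal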
# [14] = DRD fibroblast viability loss – cell-based, non-viral oncogenic, luminescence, dose response (AID 1934); type: functional; settings: Homo sapiens
# [15] = Luminescence Cell-Based Dose Confirmation HTS to Identify Inhibitors of Platelet Dense Granule Release. [Related pubchem assays: 1663 (Primary HTS), 1678 (Summary of Project)]; type: functional
# Estrogen receptor beta [16] = molecular target: T3, Estrogen receptor beta; test: blockers of SRC-3 recruitment to ERβ – biochemical, ELISA, streptavidin-HRP readout, orthogonal assay, confirmation (AID 1060)
# BJ [17] = test: BJ-TERT fibroblast viability loss – cell-based, RAS-independent, luminescence, dose response (AID 1933); type: functional; settings: Homo sapiens
# [18] = molecular target: Luciferin 4-monooxygenase (Photinus pyralis, UniProt P08659); test: inhibition of purified Photinus pyralis luciferase – biochemical, luminescence, dose response (AID 1891)
# [19] = HEK-293T viability loss after treatment – luminescence, T-cell screen hits, cytotoxicity control for TCR NF-kB inhibitor project, dose response (AID 489026); type: functional, cell-based;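 further: cells exposed to compound about 14 hours before the viability readout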
# BJ [20] = test: BJ-TERT-LT-ST fibroblast viability loss – cell-based, RAS-independent, luminescence, dose response (AID 1935); type: functional; settings: Homo sapiens;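 further: BJ fibroblasts immortalized with TERT plus LT and ST oncogenes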
# BJ [21] = test: growth inhibition of engineered Ras-driven BJ cells – cell-based, alamar blue fluorescence, cherrypicked samples, dose response (AID 2631); type: functional; settings: Homo sapiens;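 further: confirmatory dose-response assay in RAS-dependent BJ fibroblasts engineered with TERT, LT and ST, with cytotoxicity read by fluorescence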
# BJ [22] = test: cells; type: functional, cell-based; settings: Homo sapiens
# [23] = molecular target: Eukaryotic translation initiation factor 4E (Mus musculus, UniProt P63073); test: blockers of eIF4G binding by eIF4E – biochemical, TR-FRET, dose response (AID 855); type: functional;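 further: potency for disrupting eIF4E binding to eIF4GI seen as loss of FRET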
# [24] = molecular target: T4, High affinity choline transporter 1 (Homo sapiens, UniProt Q9GZV3); test: human choline transporter blockers, potency – cell-based, 5-point CRC, membrane potential dye, dose response (AID 504840); type: functional
# T4 sequence (Q9GZV3 whole entry): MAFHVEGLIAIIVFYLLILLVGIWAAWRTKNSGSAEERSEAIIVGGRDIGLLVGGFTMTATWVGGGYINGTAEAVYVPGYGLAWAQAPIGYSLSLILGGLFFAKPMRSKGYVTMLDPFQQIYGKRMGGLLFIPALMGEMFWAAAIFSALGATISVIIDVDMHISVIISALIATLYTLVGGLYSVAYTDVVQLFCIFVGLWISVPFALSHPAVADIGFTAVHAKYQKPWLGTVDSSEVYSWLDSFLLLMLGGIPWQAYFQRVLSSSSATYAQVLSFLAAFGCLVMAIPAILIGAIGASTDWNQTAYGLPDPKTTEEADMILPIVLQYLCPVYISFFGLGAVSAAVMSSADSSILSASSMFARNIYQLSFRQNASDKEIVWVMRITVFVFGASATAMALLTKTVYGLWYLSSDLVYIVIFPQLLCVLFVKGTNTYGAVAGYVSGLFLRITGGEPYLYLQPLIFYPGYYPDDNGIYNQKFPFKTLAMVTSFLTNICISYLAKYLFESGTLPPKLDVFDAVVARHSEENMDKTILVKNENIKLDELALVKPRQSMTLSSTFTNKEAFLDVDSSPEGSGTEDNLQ
# H4 = test: Luminescence Cell-Based Dose Response HTS to Identify Activators of 5'UTR Stem-Loop Driven Prion Protein mRNA Translation in H4 Neuroglioblastoma Cells. [Related pubchem assays: 1829 (Project Summary), 1814 (Primary HTS)]; type: functional; settings: Homo sapiens
# [25] = Luminescence Cell-Based Dose Confirmation HTS to Identify Activators of 5'UTR Stem-Loop Driven Alpha-Synuclein mRNA Translation in H4 Neuroglioblastoma Cells. [Related pubchem assays: 1829 (Project Summary), 1814 (Primary HTS)]; type: functional
# [26] = Luminescence Cell-Based Dose Response HTS to Identify Activators of Luciferase Translation or Activity in H4 […] Cells. [Related pubchem assays: 1829 (Project Summary), 1814 (Primary HTS)]; type: functional
# [27] = non-specific 3'UTR reporter inhibition in Clone20-Shn3RL – cell-based, Renilla luciferase, cherry-picked, counter-screen for Shn3 inhibitor project, dose response (AID 624133); type: functional
# [28] = Fluorescence-based cell-based high throughput dose response assay for inhibitors of the interaction of nucleotide-binding oligomerization domain containing 2 (NOD2) and the receptor-interacting serine-threonine kinase 2 (RIPK2).; type: functional, Homo sapiens; settings: Homo sapiens
# Vero [29] = test: cells; type: functional; settings: Chlorocebus sabaeus
# [30] = molecular target: Heat shock protein HSP 90-alpha (Homo sapiens, UniProt P07900); type: functional, organism-based
# Vero [31] = test: cells; type: functional, cell-based; settings: Chlorocebus sabaeus
# [32] = molecular target: T5, Low molecular weight phosphotyrosine protein phosphatase (Homo sapiens, UniProt P24666); type: functional; settings: read-out: IC50_Mean;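 further: Dose-response confirmation assay measuring inhibition of LMPTP enzyme activity by fluorescence intensity read-out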
# T5 sequence (P24666 whole entry): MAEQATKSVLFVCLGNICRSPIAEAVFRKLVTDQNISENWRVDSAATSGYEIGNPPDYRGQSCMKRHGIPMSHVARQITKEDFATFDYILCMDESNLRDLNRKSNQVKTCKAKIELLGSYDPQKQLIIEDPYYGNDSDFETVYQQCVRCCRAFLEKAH
# Sequence of 72 kDa type IV collagenase (P08253 whole entry): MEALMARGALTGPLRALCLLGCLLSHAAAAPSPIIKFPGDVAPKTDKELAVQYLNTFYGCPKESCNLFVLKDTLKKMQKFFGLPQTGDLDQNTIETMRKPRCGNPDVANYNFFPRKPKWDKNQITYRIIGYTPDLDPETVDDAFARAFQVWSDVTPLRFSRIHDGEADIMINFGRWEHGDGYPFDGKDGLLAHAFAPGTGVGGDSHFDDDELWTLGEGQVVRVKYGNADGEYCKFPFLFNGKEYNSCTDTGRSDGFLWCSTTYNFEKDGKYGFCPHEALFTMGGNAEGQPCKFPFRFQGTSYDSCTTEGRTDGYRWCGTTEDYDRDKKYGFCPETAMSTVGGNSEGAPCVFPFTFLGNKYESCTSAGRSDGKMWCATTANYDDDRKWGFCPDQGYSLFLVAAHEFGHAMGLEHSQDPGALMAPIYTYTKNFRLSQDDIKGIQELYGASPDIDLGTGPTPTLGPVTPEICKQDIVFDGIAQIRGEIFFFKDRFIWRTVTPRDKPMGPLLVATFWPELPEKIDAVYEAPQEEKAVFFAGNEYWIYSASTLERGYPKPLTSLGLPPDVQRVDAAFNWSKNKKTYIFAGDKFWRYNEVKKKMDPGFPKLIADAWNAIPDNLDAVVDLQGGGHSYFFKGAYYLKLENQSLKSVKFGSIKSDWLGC
# Sequence of 26S proteasome non-ATPase regulatory subunit 14 (O00487 whole entry): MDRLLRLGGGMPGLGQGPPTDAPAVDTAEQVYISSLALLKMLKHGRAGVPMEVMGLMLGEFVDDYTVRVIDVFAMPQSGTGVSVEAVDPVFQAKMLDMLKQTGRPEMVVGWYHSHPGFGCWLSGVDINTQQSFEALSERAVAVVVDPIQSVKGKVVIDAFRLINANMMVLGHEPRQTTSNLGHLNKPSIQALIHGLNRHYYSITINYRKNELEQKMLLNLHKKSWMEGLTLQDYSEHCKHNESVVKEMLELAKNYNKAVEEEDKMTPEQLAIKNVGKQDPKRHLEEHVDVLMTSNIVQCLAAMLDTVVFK
# Sequence of Nonstructural protein 1 (Q194T2 whole entry): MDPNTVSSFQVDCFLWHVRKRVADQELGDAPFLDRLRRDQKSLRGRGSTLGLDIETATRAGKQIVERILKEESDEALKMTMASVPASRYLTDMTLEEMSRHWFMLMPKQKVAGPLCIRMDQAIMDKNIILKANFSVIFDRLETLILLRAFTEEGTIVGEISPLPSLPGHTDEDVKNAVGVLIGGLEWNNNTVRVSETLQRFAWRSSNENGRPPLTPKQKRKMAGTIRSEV
# Sequence of G-protein coupled receptor 55 (Q9Y2T6 whole entry): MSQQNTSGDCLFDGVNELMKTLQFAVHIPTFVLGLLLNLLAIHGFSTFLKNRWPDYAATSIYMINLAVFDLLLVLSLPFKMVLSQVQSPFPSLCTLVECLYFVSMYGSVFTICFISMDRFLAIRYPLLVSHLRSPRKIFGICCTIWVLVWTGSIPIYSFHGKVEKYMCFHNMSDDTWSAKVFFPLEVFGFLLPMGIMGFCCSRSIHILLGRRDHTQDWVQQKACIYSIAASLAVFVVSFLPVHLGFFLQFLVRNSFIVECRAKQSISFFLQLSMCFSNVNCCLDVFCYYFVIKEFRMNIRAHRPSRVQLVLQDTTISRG
# T3 sequence (Q92731 whole entry): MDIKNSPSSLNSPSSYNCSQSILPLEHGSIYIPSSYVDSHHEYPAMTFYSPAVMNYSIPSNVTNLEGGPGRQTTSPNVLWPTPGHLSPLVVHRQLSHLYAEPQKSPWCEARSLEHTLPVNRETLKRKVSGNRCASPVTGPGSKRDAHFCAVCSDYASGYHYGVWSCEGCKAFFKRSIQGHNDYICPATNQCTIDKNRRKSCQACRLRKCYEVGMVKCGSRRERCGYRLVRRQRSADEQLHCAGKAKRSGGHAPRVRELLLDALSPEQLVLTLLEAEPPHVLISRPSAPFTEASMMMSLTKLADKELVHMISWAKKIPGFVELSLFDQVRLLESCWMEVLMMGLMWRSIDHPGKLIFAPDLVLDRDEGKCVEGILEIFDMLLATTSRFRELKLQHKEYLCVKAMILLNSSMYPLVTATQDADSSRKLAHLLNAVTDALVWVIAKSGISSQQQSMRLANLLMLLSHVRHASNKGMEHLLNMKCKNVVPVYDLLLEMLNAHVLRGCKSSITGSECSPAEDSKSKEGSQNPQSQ
# Sequence of Eukaryotic translation initiation factor 4E (P63073 whole entry): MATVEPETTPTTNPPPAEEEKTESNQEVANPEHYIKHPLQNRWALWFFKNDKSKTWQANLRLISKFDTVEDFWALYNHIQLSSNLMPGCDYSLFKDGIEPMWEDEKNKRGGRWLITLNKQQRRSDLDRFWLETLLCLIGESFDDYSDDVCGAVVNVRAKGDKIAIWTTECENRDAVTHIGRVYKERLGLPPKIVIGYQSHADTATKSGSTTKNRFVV
# Sequence of Melanocortin receptor 4 (P32245 whole entry): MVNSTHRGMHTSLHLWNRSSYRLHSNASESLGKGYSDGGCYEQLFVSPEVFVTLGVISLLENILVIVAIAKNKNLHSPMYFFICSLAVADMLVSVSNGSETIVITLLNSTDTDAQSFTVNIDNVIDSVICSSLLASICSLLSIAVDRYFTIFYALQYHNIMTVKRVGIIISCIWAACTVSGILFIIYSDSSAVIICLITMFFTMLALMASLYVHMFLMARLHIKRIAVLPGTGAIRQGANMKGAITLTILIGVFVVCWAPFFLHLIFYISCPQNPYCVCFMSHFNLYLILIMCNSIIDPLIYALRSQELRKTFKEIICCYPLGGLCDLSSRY
# Sequence of Luciferin 4-monooxygenase (P08659 whole entry): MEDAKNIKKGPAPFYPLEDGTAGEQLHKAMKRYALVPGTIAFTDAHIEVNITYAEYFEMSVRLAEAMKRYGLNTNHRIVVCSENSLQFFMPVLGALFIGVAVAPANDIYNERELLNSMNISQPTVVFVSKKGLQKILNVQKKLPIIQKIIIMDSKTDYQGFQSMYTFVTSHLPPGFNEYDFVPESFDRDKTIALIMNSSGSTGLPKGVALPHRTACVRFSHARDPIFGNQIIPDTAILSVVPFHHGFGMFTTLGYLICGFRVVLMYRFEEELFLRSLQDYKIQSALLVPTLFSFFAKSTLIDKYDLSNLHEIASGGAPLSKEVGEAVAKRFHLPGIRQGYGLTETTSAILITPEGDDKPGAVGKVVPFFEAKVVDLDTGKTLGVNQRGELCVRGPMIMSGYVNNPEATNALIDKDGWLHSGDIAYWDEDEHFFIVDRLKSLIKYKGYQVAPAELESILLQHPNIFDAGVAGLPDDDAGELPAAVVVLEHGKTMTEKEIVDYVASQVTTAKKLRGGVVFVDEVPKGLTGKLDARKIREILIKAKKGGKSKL
smiles,measurement,setting,value
Cc1ccc(-c2ccc(/C=C3\SC(N4CCOCC4)=NC3=O)o2)cc1,IC50,[1],> 100 µM (inactive)
same,IC50,[2],9.69 µM (active)
same,IC50,Prothrombin,7.72 µM (active)
same,EC50,[3],655 nM (active)
same,EC50,[4],17.1 µM (active)
CC(=O)c1ccc(OC(=O)c2ccc(Br)o2)cc1,IC50,Coagulation factor XII,18.5 µM (active)
O=C(Nc1nc2n(n1)C(c1ccc(Cl)cc1)CC(c1ccc(Cl)cc1)N2)c1ccco1 (stereo not given),CC50,[5],12.8 µM (active)
same,IC50,Coagulation factor XII,> 50 µM (inactive)
CCc1ccc(OCCNc2cc(N3CCNC(C)C3)ccc2[N+](=O)[O-])cc1 (stereo not given),CC50,[6],13.9 µM (active)
same,CC50,[7],12.4 µM (active)
same,EC50,Melanocortin receptor 4,> 89.2 µM (inactive)
same,AC50,[8],15.6 µM (active)
same,IC50,cells,24 µM (active)
same,IC50,Nonstructural protein 1,37.4 µM (active)
same,CC50,[9],12.4 µM (active)
same,AC50,[10],7.97 µM (active)
same,IC50,[11],> 20 µM (inactive)
CC1(C)CC(=O)C(/C=N/CC2CCN(C(=O)Cc3ccccc3)CC2)=C(O)C1,IC50,[1],> 100 µM (inactive)
same,IC50,[2],> 100 µM (inactive)
same,IC50,Prothrombin,> 100 µM (inactive)
CCc1ccc(C(=O)NC(=S)Nc2ccccc2N2CCOCC2)cc1,IC50,[12],1.2 µM (active)
CCOC(=O)c1cnc2c(c(C)nn2C)c1Oc1ccc(Cl)cc1,IC50,[12],3.54 µM (active)
OC(CCCN1CCCCC1)(c1ccccc1)c1ccccc1 [DIPHENIDOL HYDROCHLORIDE],AC50,HEK293,323 µM (active)
c1ccc(-c2noc(-c3ccc4c(c3)OCO4)n2)nc1,IC50,Estrogen receptor beta [13],37.8 µM (not active)
same,EC50,[14],1.67 µM (active)
same,EC50,[15],1.1 µM (active)
same,IC50,Estrogen receptor beta [16],> 109 µM (not active)
same,EC50,BJ [17],2.1 µM (inconclusive)
same,EC50,[18],105 nM (active)
same,IC50,[19],> 80 µM (inactive)
same,EC50,BJ [20],6.29 µM (inconclusive)
same,EC50,BJ [21],> 133 µM (inactive)
same,EC50,BJ [22],1.47 µM (active)
O=C(c1ccccc1)N1CCCC(c2nc(O)c3nnn(Cc4ccccc4)c3n2)C1 (stereo not given),IC50,Coagulation factor XII,> 50 µM (inactive)
O=C(OCC(=O)c1c[nH]c2ccccc12)c1cccc(O)c1,IC50,[23],> 64 µM (inactive)
same,IC50,[24],15.8 µM (active)
same,EC50,H4,8.02 µM (active)
same,EC50,[25],5.16 µM (active)
same,EC50,[26],12.3 µM (active)
O=C(NCc1ccccn1)c1cn(CCc2ccccc2)nn1,IC50,Coagulation factor XII,> 50 µM (inactive)
CCN(CC)CCN1C(=O)/C(=C\c2ccc(Cl)c([N+](=O)[O-])c2)S/C1=N\c1ccc(OC)cc1,EC50,[14],2.86 µM (active)
same,AC50,[27],10.4 µM (active)
same,EC50,BJ [17],2.1 µM (active)
same,IC50,[28],2.75 µM (active)
same,AC50,[8],2.11 µM (active)
same,CC50,Vero [29],15.7 µM (active)
same,AC50,[10],16.8 µM (active)
same,EC50,BJ [20],1.65 µM (active)
same,EC50,BJ [21],0.537 µM (active)
same,EC50,BJ [22],4.01 µM (active)
CC(=NNc1nc2ccccc2s1)c1ncccn1,AC50,[30],1.61 µM (active)
same,IC50,Vero [31],> 25 µM (active)
same,IC50,Nonstructural protein 1,5.05 µM (active)
same,AC50,HEK293,14 µM (active)
same,CC50,Vero [29],9.06 µM (active)
CCN(C(C)=O)c1cnc(C=NNC(N)=S)c2ccccc12,IC50,Nonstructural protein 1,6.69 µM (active)
CC(C1SC(=S)NC1=O)C1SC(=S)NC1=O (stereo not given),IC50,[32],80 µM (inactive)
same,IC50,[1],> 100 µM (inactive)
same,IC50,[2],45.4 µM (active)
same,IC50,Prothrombin,52.4 µM (active)

# — ChEMBL document CHEMBL1201862, “PubChem BioAssay data set” (2004)
